Holding throughout (assay): Kinase selectivity, scanMAX Kinase assay panel (DiscoverX), % control at 1 uM
Common to all, as to assay type: binding

Assay [1] has as its target T1, scanMAX Kinase assay panel (Homo sapiens, UniProt Q9NWZ3).
T1 construct: purchased DiscoverX
T1 sequence (Q9NWZ3 1-460): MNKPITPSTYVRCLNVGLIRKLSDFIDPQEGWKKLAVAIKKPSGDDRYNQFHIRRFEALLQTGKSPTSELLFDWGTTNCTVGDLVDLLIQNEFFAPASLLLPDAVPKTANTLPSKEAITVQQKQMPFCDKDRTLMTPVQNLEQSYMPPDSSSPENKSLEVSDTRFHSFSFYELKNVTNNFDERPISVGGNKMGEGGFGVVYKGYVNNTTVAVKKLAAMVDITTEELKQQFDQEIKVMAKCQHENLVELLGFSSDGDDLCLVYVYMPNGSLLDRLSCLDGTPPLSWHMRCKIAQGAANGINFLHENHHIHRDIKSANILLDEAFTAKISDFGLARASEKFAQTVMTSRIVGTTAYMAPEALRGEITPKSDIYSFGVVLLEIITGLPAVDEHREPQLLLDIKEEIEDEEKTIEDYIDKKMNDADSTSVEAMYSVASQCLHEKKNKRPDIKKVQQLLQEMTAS
The following applies: IRAK4; 1 uM; read-out: Percent Control (%). The gist of the method:
(§1)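 Read-out is percent of control, derived from the signal with compound relative to positive and negative controls: (compound − positive)/(negative − positive) × 100. Each enzyme received test drug at 1 uM in DMSO, and values under 35% count as active.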

Assay [2] concerns the target T2, scanMAX Kinase assay panel (Homo sapiens, UniProt Q9Y2I7).
T2 construct: purchased DiscoverX
The settings on record: PIKFYVE; 1 uM; read-out: Percent Control (%). The essentials:
as §1

The target of assay [3] is T3, scanMAX Kinase assay panel (Homo sapiens, UniProt Q16566).
T3 construct: purchased DiscoverX
T3 sequence (Q16566 1-473): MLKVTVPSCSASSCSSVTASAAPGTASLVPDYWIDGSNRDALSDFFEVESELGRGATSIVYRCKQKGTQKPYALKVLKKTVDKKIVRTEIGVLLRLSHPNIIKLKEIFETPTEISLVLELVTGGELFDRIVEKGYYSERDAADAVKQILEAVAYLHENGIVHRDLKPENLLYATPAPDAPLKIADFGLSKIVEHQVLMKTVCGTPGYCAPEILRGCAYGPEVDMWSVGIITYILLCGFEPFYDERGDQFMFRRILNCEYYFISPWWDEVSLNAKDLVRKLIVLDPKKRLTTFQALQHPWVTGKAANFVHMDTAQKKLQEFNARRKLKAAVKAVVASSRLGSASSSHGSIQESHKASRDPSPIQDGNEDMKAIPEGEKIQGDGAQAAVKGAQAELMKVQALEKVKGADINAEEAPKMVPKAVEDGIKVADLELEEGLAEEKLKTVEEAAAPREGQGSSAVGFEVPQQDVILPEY
The settings on record: CAMK4; 1 uM; read-out: Percent Control (%). The gist of the method: as §1

Assay [4] concerns the target T4, scanMAX Kinase assay panel (Homo sapiens, UniProt P36888, K663Q).
T4 construct: purchased DiscoverX
T4 sequence (P36888 27-993 K663Q): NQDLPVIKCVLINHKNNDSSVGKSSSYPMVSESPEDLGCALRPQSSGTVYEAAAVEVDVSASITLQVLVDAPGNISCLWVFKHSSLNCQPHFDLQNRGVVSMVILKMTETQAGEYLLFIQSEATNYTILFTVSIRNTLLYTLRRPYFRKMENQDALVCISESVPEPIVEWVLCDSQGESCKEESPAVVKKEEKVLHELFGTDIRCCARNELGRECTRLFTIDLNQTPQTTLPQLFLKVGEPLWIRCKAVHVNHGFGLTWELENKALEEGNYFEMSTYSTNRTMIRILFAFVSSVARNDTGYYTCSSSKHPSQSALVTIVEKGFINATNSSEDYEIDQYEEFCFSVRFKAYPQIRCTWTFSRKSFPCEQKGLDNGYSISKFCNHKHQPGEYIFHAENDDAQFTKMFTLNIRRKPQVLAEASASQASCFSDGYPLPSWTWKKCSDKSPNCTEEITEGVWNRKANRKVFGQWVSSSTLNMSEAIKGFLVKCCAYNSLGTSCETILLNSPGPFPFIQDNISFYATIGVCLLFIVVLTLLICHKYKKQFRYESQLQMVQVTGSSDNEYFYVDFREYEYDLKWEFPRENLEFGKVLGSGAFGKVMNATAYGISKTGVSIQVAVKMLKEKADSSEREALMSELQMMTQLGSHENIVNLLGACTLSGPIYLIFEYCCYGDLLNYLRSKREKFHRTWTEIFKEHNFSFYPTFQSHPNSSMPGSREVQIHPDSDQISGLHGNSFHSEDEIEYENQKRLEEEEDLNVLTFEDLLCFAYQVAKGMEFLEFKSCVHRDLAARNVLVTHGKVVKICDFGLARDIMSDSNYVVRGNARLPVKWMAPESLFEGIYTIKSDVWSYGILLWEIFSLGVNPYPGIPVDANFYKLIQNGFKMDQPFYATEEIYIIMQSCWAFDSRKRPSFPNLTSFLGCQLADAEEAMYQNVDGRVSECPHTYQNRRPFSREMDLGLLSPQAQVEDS
The settings on record: FLT3 (K663Q); 1 uM; read-out: Percent Control (%). The essentials: as §1

Assay [5] deals with T5, scanMAX Kinase assay panel (Homo sapiens, UniProt P11362).
T5 construct: purchased DiscoverX
The following applies: FGFR1; 1 uM; read-out: Percent Control (%). The essentials: as §1

Assay [6] addresses T6, scanMAX Kinase assay panel (Homo sapiens, UniProt P78362).
T6 construct: purchased DiscoverX
The settings on record: SRPK2; 1 uM; read-out: Percent Control (%). The gist of the method: as §1

In assay [7] the target is T7, scanMAX Kinase assay panel (Homo sapiens, UniProt P36894).
T7 construct: purchased DiscoverX
The settings on record: BMPR1A; 1 uM; read-out: Percent Control (%). The essentials:
as §1

Remaining binding data for 3 molecules are collected here from patent US10870647B2, “Imidazopyridine derivative, method for preparing same, and pharmaceutical composition containing same as active ingredient for preventing or treating cancer” (DAEGU-GYEONGBUK MEDICAL INNOVATION FOUNDATION, priority 2016, dated 2020).

T7 sequence (P36894 24-532): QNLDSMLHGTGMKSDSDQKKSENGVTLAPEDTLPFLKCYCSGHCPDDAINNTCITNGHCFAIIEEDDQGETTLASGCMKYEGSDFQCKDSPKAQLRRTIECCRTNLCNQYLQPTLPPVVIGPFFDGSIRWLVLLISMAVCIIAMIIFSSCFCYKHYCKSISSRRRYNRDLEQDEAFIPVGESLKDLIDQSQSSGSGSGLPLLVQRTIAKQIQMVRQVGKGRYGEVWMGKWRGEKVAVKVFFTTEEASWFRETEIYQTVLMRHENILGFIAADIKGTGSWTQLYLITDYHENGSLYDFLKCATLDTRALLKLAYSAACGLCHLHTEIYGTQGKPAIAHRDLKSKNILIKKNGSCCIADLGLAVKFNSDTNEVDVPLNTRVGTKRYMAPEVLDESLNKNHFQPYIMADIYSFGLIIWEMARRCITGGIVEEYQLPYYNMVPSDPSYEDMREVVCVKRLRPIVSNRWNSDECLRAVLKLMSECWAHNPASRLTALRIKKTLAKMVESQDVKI
T5 sequence (P11362 22-822): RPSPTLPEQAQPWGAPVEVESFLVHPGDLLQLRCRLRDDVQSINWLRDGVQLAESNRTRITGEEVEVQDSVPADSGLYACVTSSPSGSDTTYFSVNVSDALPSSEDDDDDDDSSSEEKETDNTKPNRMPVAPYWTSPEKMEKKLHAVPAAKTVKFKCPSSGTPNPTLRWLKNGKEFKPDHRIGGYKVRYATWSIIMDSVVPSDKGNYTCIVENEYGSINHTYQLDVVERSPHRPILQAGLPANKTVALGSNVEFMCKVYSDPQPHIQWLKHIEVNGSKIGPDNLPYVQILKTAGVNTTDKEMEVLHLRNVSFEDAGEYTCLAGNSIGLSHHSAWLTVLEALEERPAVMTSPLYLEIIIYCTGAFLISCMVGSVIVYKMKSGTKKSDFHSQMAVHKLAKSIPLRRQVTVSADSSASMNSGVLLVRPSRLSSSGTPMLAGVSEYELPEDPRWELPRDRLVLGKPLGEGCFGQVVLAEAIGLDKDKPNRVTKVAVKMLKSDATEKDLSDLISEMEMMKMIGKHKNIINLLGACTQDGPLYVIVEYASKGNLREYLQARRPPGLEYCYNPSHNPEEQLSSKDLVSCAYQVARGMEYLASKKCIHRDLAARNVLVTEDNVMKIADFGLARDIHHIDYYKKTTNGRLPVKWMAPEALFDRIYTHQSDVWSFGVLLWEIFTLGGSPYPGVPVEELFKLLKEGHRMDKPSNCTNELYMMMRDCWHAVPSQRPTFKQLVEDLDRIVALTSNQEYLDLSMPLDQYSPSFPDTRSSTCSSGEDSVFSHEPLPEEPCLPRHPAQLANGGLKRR
T2 sequence (Q9Y2I7 whole entry): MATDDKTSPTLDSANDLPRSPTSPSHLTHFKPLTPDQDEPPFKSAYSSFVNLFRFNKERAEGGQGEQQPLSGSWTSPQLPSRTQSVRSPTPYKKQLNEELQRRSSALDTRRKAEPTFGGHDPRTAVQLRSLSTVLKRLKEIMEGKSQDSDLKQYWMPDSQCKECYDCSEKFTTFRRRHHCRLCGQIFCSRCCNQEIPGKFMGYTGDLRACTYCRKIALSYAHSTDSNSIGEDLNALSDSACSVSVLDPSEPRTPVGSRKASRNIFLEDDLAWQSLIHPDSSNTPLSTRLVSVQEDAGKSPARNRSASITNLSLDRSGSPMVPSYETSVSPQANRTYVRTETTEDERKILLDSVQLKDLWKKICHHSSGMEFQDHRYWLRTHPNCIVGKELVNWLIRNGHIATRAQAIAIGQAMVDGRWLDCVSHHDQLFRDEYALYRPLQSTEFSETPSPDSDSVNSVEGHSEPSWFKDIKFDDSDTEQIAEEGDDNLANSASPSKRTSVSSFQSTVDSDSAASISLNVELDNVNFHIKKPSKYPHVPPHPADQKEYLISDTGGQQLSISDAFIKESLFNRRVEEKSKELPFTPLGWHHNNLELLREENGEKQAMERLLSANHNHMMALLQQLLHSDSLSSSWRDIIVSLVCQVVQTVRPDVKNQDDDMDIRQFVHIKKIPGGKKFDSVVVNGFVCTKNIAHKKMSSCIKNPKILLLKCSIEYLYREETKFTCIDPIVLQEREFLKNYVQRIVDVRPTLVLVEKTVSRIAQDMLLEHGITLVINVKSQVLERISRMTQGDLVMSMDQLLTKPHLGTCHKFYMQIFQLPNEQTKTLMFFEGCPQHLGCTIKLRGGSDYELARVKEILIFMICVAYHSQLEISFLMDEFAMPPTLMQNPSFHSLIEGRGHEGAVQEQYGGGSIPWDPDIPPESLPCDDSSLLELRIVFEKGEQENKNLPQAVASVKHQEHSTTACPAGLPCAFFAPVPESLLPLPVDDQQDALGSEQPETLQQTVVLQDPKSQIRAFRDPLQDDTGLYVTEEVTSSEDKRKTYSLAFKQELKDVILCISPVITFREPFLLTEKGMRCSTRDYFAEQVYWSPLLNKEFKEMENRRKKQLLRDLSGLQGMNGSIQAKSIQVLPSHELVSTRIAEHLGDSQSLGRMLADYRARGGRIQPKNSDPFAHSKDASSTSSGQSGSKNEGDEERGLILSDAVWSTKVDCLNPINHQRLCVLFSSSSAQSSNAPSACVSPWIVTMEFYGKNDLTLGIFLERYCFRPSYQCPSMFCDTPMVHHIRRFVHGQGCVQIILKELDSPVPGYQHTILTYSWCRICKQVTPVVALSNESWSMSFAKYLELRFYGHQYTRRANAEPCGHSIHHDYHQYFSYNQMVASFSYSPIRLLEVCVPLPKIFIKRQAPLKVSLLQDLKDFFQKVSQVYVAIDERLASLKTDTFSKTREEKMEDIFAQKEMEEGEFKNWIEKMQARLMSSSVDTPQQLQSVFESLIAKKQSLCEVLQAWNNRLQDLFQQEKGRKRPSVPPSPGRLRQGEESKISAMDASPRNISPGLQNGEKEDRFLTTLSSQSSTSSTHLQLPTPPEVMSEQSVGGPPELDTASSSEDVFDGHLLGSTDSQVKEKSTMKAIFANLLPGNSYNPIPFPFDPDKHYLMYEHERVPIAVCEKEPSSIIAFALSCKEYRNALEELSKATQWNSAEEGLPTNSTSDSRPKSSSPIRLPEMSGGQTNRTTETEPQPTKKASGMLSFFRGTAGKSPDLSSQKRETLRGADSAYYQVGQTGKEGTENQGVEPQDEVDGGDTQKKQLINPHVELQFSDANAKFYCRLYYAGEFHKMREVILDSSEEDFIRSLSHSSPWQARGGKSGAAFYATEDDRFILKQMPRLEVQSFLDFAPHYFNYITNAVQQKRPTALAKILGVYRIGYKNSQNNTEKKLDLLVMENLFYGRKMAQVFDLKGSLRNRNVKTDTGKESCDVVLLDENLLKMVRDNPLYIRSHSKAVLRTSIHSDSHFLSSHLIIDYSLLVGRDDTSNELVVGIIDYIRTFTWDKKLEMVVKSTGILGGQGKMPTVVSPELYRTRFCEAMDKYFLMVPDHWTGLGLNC
T6 sequence (P78362 whole entry): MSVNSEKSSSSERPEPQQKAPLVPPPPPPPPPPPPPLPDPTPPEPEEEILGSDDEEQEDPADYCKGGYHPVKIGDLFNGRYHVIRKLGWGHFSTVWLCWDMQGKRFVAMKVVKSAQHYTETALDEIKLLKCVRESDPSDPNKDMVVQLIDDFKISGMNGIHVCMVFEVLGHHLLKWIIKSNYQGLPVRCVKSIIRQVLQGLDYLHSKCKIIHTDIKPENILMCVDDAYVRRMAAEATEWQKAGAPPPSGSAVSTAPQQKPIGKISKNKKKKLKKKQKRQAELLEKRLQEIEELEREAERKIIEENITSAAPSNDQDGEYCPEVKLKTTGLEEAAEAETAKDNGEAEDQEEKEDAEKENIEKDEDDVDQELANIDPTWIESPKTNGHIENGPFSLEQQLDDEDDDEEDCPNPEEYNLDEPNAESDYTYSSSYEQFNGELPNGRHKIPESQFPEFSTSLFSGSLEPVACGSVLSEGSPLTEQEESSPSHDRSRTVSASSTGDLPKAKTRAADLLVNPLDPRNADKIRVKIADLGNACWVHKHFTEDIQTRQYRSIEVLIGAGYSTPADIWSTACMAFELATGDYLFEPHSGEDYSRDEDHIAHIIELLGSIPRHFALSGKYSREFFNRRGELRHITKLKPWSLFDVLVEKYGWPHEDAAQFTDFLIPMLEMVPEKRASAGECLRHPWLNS

On to `Cc1ccc(C(=O)Nc2ccc(CN3CCN(C)CC3)c(C(F)(F)F)c2)cc1C#Cc1cnc2c(Nc3cnn(C)c3)cccn12` [Example 1, 4-methyl-3-((8-((1-methyl-1H-pyrazol-4-yl)amino)imidazo[1,2-a]pyridin-3-yl)ethynyl)-N-(4-((4-methylpiperazin-1-yl)methyl)-3-(trifluoromethyl)phenyl)benzamide], for which the remaining binding at 1 µM in assay [1] stood at 22%; in assay [2], 84%; in assay [3], 99%; in assay [4] it was 2%; in assay [5], 0%; in assay [6], 97%. The remaining binding at 1 µM in assay [7] came out at 77%.

For the molecule `Cc1cn(-c2cc(NC(=O)c3ccc(C)c(C#Cc4cnc5c(Nc6cnn(C)c6)cccn45)c3)cc(C(F)(F)F)c2)cn1` [Example 12, 4-methyl-N-(3-(4-methyl-1H-imidazol-1-yl)-5-(trifluoromethyl)phenyl)-3-((8-((1-methyl-1H-pyrazol-4-yl)amino)imidazo[1,2-a]pyridin-3-yl)ethynyl)benzamide], the remaining binding at 1 µM in assay [1] was found to be 81%; in assay [2], 65%; in assay [3], 87%; in assay [4], 1%; in assay [5], 6%; in assay [6], 87%. Further, in assay [7], the remaining binding at 1 µM amounted to 60%.

Turning to `Cc1ccc(NC(=O)C2(C(=O)Nc3ccc(F)cc3)CC2)cc1C#Cc1cnc2c(Nc3cnn(C(C)C)c3)cccn12` [Example 78], the remaining binding at 1 µM in assay [1] came out at 100%; in assay [2], 91%; in assay [3] it was 100%; in assay [4] it was 74%; in assay [5] it was 100%; in assay [6], 100%. The remaining binding at 1 µM in assay [7] was 94%.
